How the values were obtained:
R99A EcDXPS = biological target: T1, R99A EcDXPS (Escherichia coli, UniProt P77488, R99A); assay: IC50 determination for 8 on R99A EcDXPS variant; assay type: biochemical; settings: 400 nM DXPS, 2 × Km pyruvate, 10 × Km D-GAP
T1 construct: made in house
Method: EcDXPS and IspC were preincubated with inhibitor for 10 min at 25 °C in assay reaction buffer (100 mM HEPES pH 8, 2 mM MgCl2, 5 mM NaCl, 1 mM ThDP, and 200 μM NADPH). Enzyme concentrations for variants were as follows: 200 nM DXPS (wildtype EcDXPS) and 4 μM IspC; 400 nM DXPS (R99A and R478A EcDXPS) and 6 μM IspC. The reaction was initiated by the addition of substrates at final concentrations of 2 × Km pyruvate and 10 × KmD-GAP. NADPH consumption was monitored at 340 nm for 10 min at 25 °C. The initial rate of NADPH consumption was used to determine the initial rate of DXP formation catalyzed by DXPS. Experiments were performed in triplicate and error bars represented standard error.

WT EcDXPS = biological target: T2, WT EcDXPS (Escherichia coli, UniProt P77488); assay: Circular dichroism titration (PLThDP formation, apparent KD) on WT EcDXPS; assay type: binding
T2 construct: made in house
Excerpt: The X-ray structure obtained from cocrystallization of DrDXPS with 1 (Figure 2) indicates the formation of the PLThDP adduct by reaction of the acetylphosphonate mimic of pyruvate with the C2 carbanion of ThDP. We reasoned that 8 should also engage the pyruvate binding site and react with ThDP to form a PLThDP adduct. Circular dichroism (CD) is a powerful tool that can be used to detect LThDP and LThDP-like adducts on thiamin-dependent enzymes,[56],[67]−[75] including DXPS.[31],[36],[43],[44],[49]−[52],[76] DXPS bound to ThDP (E-ThDP) is characterized by a CD λmin at 320 nm, indicative of the 4′-aminopyrimidine (AP) tautomer of ThDP (Figure 8A). Upon addition of pyruvate to E-ThDP, a new positive signal emerges at 313 nm, indicating the formation of LThDP in its 1′,4′-iminopyrimidine (IP) form. Similarly, upon addition of AP-based inhibitors to E-ThDP, the E-PLThDP adduct is formed, characterized by an increasing, broad CD signal.[69],[77],[78] Determination of apparent KD of PLThDP by plotting the CD signal corresponding to PLThDP versus [MAP] has been used as a proxy for PLThDP affinity.[77],[78] To confirm that 8 reacts with ThDP to form PLThDP in the DXPS active site, the change in CD signal upon addition of 8 (0.25–30 μM) to EcDXPS (30 μM) was measured. […] Plotting the CD signal at 294 nm versus affords a curve that approaches the limiting asymptotes defined by infinitely tight binding (Figure 8C),[79],[80] which is expected for this nanomolar inhibitor under the conditions of high [DXPS] required for this method. Since in this case [DXPS] ≫ KD^app, an accurate determination of KD^app is not possible, and data were fit to a quadratic equation to give an estimated upper limit for the value of KD^app (≤0.04 ± 0.01 μM). Addition of 10 to DXPS also results in an increased, broad CD signal (Figure S7A), indicating PLThDP formation. […]
CD titrations of 8 and 10 onto WT, R99A, and R478A EcDXPS variants were conducted at 25 °C under aerobic conditions in 1.5 mL solutions containing 30 μM EcDXPS in 50 mM HEPES pH 8, 100 mM NaCl, 1 mM MgCl2, and 0.2 mM ThDP. […] The CD signals at 294 nm determined from the difference spectra obtained by subtracting the signal of E-ThDP at 294 nm were plotted as a function of [inhibitor] and fit to (1) the quadratic equation described in eq 2 (8 on WT DXPS), where E is the concentration of DXPS taking into account stoichiometric binding and CDmax is the maximal CD signal, or (2) a one-site specific binding curve (all other experiments) using GraphPad Prism Version 9 to calculate an apparent KD. Experiments were conducted in triplicate and the standard error was calculated. […]
At the conclusion of the titration described above, the CD signal at 313 nm (previously characterized for LThDP) was recorded. […]

R478A EcDXPS = biological target: T3, R478A EcDXPS (Escherichia coli, UniProt P77488, R478A); assay: Circular dichroism titration (PLThDP formation, apparent KD) on R478A EcDXPS; assay type: binding
T3 construct: made in house
Method: CD titrations of 8 and 10 onto WT, R99A, and R478A EcDXPS variants were conducted at 25 °C under aerobic conditions in 1.5 mL solutions containing 30 μM EcDXPS in 50 mM HEPES pH 8, 100 mM NaCl, 1 mM MgCl2, and 0.2 mM ThDP. Scans were obtained from 280 to 400 nm with a 0.5 s averaging time and 1 nm step following a titration of inhibitor (8: 0.25–30 μM on WT, 0.5–30 μM on R99A and R478A; 10 2.5–30 μM on WT, R99A, and R478A), with a 5 min preincubation of inhibitor with DXPS prior to scanning. […] The CD signals at 294 nm determined from the difference spectra obtained by subtracting the signal of E-ThDP at 294 nm were plotted as a function of [inhibitor] and fit to (1) the quadratic equation described in eq 2 (8 on WT DXPS), where E is the concentration of DXPS taking into account stoichiometric binding and CDmax is the maximal CD signal, or (2) a one-site specific binding curve (all other experiments) using GraphPad Prism Version 9 to calculate an apparent KD. Experiments were conducted in triplicate and the standard error was calculated. [drawing 2] 2
At the conclusion of the titration described above, the CD signal at 313 nm (previously characterized for LThDP) was recorded. Pyruvate (1 mM) was then added to the mixture, and a CD scan of the resulting solution was conducted as described above, to detect shifts in the CD spectrum that may correlate to LThDP formation. Experiments were conducted in triplicate.

EcR99A DXPS = biological target: T4, EcR99A DXPS (Escherichia coli, UniProt P77488, R99A); assay: Time-dependent inhibition, reaction progress curves on EcR99A; assay type: biochemical; settings: 8 at 700 nM or 200 μM
T4 construct: made in house
Method: Figure S8. Replicates of reaction progress curves for DXP formation on EcR99A in the presence or absence of 8. Reactions were initiated by simultaneous addition of substrates (780 µM pyruvate and 2400 µΜ D-GAP) in the presence or absence of 8 (700 nM or 200 µM) at 25 °C. Reaction progress was measured using the DXPS-IspC coupled assay. Experiments were performed in […]
Figure S9. Representative CD traces illustrating behavior of the CD signal corresponding to PLThDP formed from 8 on WT and EcDXPS variants. A) CD traces showing lack of a significant shift in CD signal following addition of pyruvate (1 mM, red trace) to E-PLThDP formed from 8 (blue trace) on WT B) Observed shift toward a LThDP-like CD signal following addition EcDXPS. of pyruvate to E-PLThDP formed from 8 on EcR99A DXPS. C) Observed shift toward a LThDP-like CD signal following addition of pyruvate to E-PLThDP formed from 8 on EcR478A DXPS. […]

With `CC(=O)P(=O)(O)OCCc1cn(C(Cc2ccccc2)(Cc2ccccc2)C(=O)O)nn1` [Compound 8] the IC50 (R99A EcDXPS) was 3.007 ± 0.015 µM, the Kd (WT EcDXPS) was no more than 0.04 µM and the “change in PLThDP CD signal upon addition of 1 mM pyruvate” value (WT EcDXPS; WT EcDXPS 30 μM, inhibitor 30 μM) was “negligible shift in the CD signal”. For the same compound, the Kd (R478A EcDXPS) was 11 ± 4 µM, the “change in PLThDP CD signal upon addition of pyruvate” value (R478A EcDXPS; R478A-PLThDP complex) was “shift in the CD profile toward the characteristic LThDP signal” and the “time dependence of inhibition (progress curve for DXP formation)” value (EcR99A DXPS) was “loss of time-dependent behavior”.

Reference: PMC11019550, “Potent Inhibition of E. coli DXP Synthase by a gem-Diaryl Bisubstrate Analog” (ACS Infectious Diseases, 2024)
